Measured values taken from patent US20190276481A1, “Liver Prodrugs of Mitochondrial Proton Ionophores” (NEUROVIVE PHARMACEUTICAL AB, priority 2016, published 2019).

Key:
[1] = tested on: isolated rat liver mitochondria; test: Uncoupling potential in isolated mitochondria (free mitochondrial uncoupling, oxygraph respiration); format: biochemical; conditions: fixed concentrations, vs DMSO control, FIGS. 1, 2, 4-6
Method: The potency of mitochondrial uncoupling without prodrug metabolism may be tested as follows:
Isolated rat liver mitochondria are prepared according to Hansson et al (Hansson et al (Brain Res. 2003 Jan. 17; 960(1-2):99-111.). Respiration is measured at a constant temperature of 37° C. in a high-resolution oxygraph (Oxygraph-2k Oroboros Instruments, Innsbruck, Austria) in 2 ml glass chambers with stirrer speed 750 rpm. Data is recorded with DatLab software (Oroboros Instruments, Innsbruck, Austria) with sampling rate set to 2 s at an oxygen concentration in the range of 210-50 μM O2. If necessary, reoxygenation is performed by partially raising the chamber stopper for a brief air equilibration. Instrumental background oxygen flux is measured in a separate set of experiments and automatically corrected for in the ensuing experiments according to the manufacturer's instructions. To measure respiration of isolated mitochondria, samples are suspended in a mitochondrial respiration medium (MiR05) containing sucrose 110 mM, HEPES 20 mM, taurine 20 mM, K-lactobionate 60 mM, MgCl2 3 mM, KH2PO4 10 mM, EGTA 0.5 mM, BSA 1 g/l, pH 7.1. After reaching stabilized respiration in the presence of substrates (malate (5 mM), glutamate (5 mM), pyruvate (5 mM) and succinate (10 mM)), state 3 respiration is induced by supplementation with ADP (1 mM) followed by addition of oligomycin (1 μg/ml, ATP-synthase inhibitor) causing state 4O. State 4O is a respiratory state dependent on the back-flux of protons across the mitochondrial membrane due to inhibition of the ATP-synthase and in the presence of saturating substrate concentrations and ADP. Drug candidates and their respective payloads of known protonophores are given at fixed concentrations to induce uncoupled respiration. Rotenone (2 μM, complex I [CI] inhibitor), antimycin-A (1 μg/ml, complex III [CIII] inhibitor) and sodium azide (10 mM) are then added to inhibit the ETS providing the residual, non-mitochondrial oxygen consumption which all respiratory values are corrected for.

[2] = tested on: HepG2 cells (hepatic) vs platelets (extra-hepatic); test: In vitro uncoupling in HepG2 cells (hepatic) vs platelets (extra-hepatic); format: cell-based; conditions: high maximal uncoupling at low concentrations in HepG2 cells; FIGS. 7-12
Method: (§1) For respiration measurements in HepG2 cells and platelets, cells are suspended in a mitochondrial respiration medium MiR05 at 37° C. in a high-resolution oxygraph (Oxygraph-2k Oroboros Instruments, Innsbruck, Austria). […] To evaluate the contribution of respiration independent of ADP phosphorylation, oligomycin (1 μg/ml, ATP-synthase inhibitor) is sequentially added inducing LEAK respiration state (a respiratory state where oxygen consumption is dependent on the back-flux of protons across the mitochondrial membrane). Drug candidates and known protonophores are carefully titrated to induce maximal uncoupled respiration/maximal rate of the ETS (electron transport system) at endogenous substrate supply and continued until a decrease or at least no further increase of uncoupled respiration is observed. Rotenone (2 μM, complex I [CI] inhibitor) and antimycin-A (1 μg/ml, complex III [CIII] inhibitor) are then added to inhibit the ETS, thus providing the residual, non-mitochondrial oxygen consumption, which all values were corrected for.
(§2) The potency of mitochondrial uncoupling with prodrug metabolism be tested as follows: • a) HepG2 cells (to simulate uncoupling with liver cell metabolism) • b) Platelets (to simulate uncoupling in blood)
It is advantageous to have an increased level of uncoupling in hepatic tissue as compared to extra-hepatic tissue. To test for this, compounds were tested in an in vitro uncoupling assay (see Assays for evaluating mitochondrial uncoupling in intact liver cells and platelets in general methods) in HepG2 cells (hepatic) vs platelets (extra-hepatic).

[3] = Relative liver exposure vs extra-hepatic organs: salicylanilide levels after oral dosing; format: in vivo; conditions: CD-1 mice
Method: For example, mice or rats are dosed with 1 or 3 mg/kg of the compound of the invention i.v. or 1, 5 or 10 mg/kg of the compound of the invention p.o. Blood samples are taken at 5 min, 15 min, 1 h, 4 h and 24 h intervals, and the concentration of the compound of the invention in the sample is determined via LCMS-MS. The time-course of plasma or whole blood concentrations can then be used to derive key parameters such as the area under the plasma or blood concentration-time curve (AUC—which is directly proportional to the total amount of unchanged drug that reaches the systemic circulation), the maximum (peak) plasma or blood drug concentration, the time at which maximum plasma or blood drug concentration occurs (peak time), additional factors which are used in the accurate determination of bioavailability include: the compound's terminal half-life, total body clearance, steady-state volume of distribution and F %.
As it is advantageous to have an increased ratio of liver uncoupling versus extra hepatic uncoupling, 3 mg/kg salicylanilide or 10 mg/kg compound 14 or 10 mg/kg compound 23 (which releases salicylanilide) were dosed orally to CD-1 mice and levels of salicylanilide were measured in blood, muscle and liver samples before and after dosing (see general methods). The ratio of liver vs extra-hepatic salicylanilide was then assessed, with a high ratio desirable, as this is anticipated to lead to reduced off-target uncoupling and toxicity.

[4] = Caco-2 permeability assay; format: in vitro ADME; conditions: human
Method: (§3) The permeability coefficient (Papp) is calculated from the following equation:
(§4) Where dQ/dt is the amount of compound in basal (A-B) or apical (B-A) compartment as a function of time (nmol/s). C0 is the initial concentration in the donor (apical or basal) compartment (Mean of T=0) (nmol/mL) and A is the area of the transwell (cm^2).
(§5) The efflux ratio is then calculated as: […]
(§6) Cell permeability may be tested as follows: The test compound is dissolved to 10 mM in DMSO and then diluted further in buffer to produce a final 10 μM dosing concentration. The fluorescence marker lucifer yellow is also included to monitor membrane integrity. Test compound is then applied to the apical (A) surface of Caco-2 cell monolayers and compound permeation into the basolateral (B) compartment is measured. This is performed in the reverse direction (basolateral to apical) to investigate active transport (efflux). LC-MS/MS is used to quantify levels of both the test and standard control compounds (such as Propanolol and Acebutolol).

[5] = Hsaio et al., 2005; cited from earlier work
HepG2 cells = test: Mitochondrial uncoupling assay in intact HepG2 liver cells; format: cell-based; conditions: FIG. 3
Method: as §1, §2

Caco-2 cell monolayers = test: Caco-2 permeability assay; format: in vitro ADME
Method: as §3, §4, §5, §6

SMILES: COP(=O)(N[C@@H](C)C(=O)OC(C)C)OCOc1ccc([N+](=O)[O-])cc1[N+](=O)[O-] (stereo partly shown) [Compound 1]
- uncoupling in isolated mitochondria (without prodrug metabolism) [1]: reduced, little or no uncoupling

SMILES: CC(C)OC(=O)[C@H](C)NP(=O)(N[C@@H](C)C(=O)OC(C)C)OCOc1ccc([N+](=O)[O-])cc1[N+](=O)[O-] [Compound 2]
- uncoupling in isolated mitochondria (without prodrug metabolism) [1]: reduced, little or no uncoupling

SMILES: CC(C)OC(=O)[C@H](C)NP(=O)(N[C@@H](C)C(=O)OC(C)C)OCOc1ccc([N+](=O)[O-])cc1 [Compound 4]
- uncoupling in isolated mitochondria (without prodrug metabolism) [1]: reduced, little or no uncoupling

SMILES: CC(C)OC(=O)[C@H](C)NP(=O)(N[C@@H](C)C(=O)OC(C)C)OCOc1ccc(Cl)cc1C(=O)Nc1ccc([N+](=O)[O-])cc1Cl [Compound 6]
- uncoupling in isolated mitochondria (without prodrug metabolism) [1]: reduced, little or no uncoupling
- selectivity of uncoupling, HepG2 cells vs platelets [2]: selective uncoupling in HepG2 cells as compared to platelets

SMILES: C[C@H](NP(=O)(N[C@@H](C)C(=O)OCC(C)(C)C)OCOc1ccc([N+](=O)[O-])cc1)C(=O)OCC(C)(C)C [Compound 9]
- uncoupling in isolated mitochondria (without prodrug metabolism) [1]: reduced, little or no uncoupling
- selectivity of uncoupling, HepG2 cells vs platelets [2]: selective uncoupling in HepG2 cells as compared to platelets

SMILES: CC(C)OC(=O)[C@H](Cc1ccccc1)NP(=O)(N[C@@H](Cc1ccccc1)C(=O)OC(C)C)OCOc1ccc([N+](=O)[O-])cc1[N+](=O)[O-] [Compound 11]
- uncoupling in isolated mitochondria (without prodrug metabolism) [1]: reduced, little or no uncoupling
- selectivity of uncoupling, HepG2 cells vs platelets [2]: selective uncoupling in HepG2 cells as compared to platelets

SMILES: CC(C)OC(=O)[C@H](Cc1ccccc1)NP(=O)(N[C@@H](Cc1ccccc1)C(=O)OC(C)C)OCOc1ccccc1C(=O)Nc1ccccc1 [Compound 14]
- ratio of liver to extra-hepatic exposure (in words) [3]: desirable ratios of liver to extra-hepatic exposure
- Salicylanilide in blood after 1 h ([3]; 3 mg/kg salicylanilide or 10 mg/kg compound 14 or 23): BQL
- uncoupling in isolated mitochondria (without prodrug metabolism) [1]: reduced, little or no uncoupling
- selectivity of uncoupling, HepG2 cells vs platelets [2]: selective uncoupling in HepG2 cells as compared to platelets

SMILES: COP(=O)(N[C@@H](C)C(=O)OC(C)C)OCOc1ccc(Cl)cc1C(=O)Nc1ccc([N+](=O)[O-])cc1Cl (stereo partly shown) [Compound 18]
- uncoupling in isolated mitochondria (without prodrug metabolism) [1]: reduced, little or no uncoupling
- selectivity of uncoupling, HepG2 cells vs platelets [2]: selective uncoupling in HepG2 cells as compared to platelets

SMILES: C[C@H](NP(=O)(N[C@@H](C)C(=O)OCC(C)(C)C)OCOc1ccccc1C(=O)Nc1ccccc1)C(=O)OCC(C)(C)C [Compound 23]
- ratio of liver to extra-hepatic exposure (in words) [3]: desirable ratios of liver to extra-hepatic exposure
- uncoupling in isolated mitochondria (without prodrug metabolism) [1]: reduced, little or no uncoupling
- selectivity of uncoupling, HepG2 cells vs platelets [2]: selective uncoupling in HepG2 cells as compared to platelets

SMILES: O=[N+]([O-])c1ccc(O)c([N+](=O)[O-])c1 [DNP, 2,4 dinitrophenol]
- uncoupling in isolated mitochondria (without prodrug metabolism) [1]: potent uncoupling
- efflux ratio at 10 µM [4]: 1.1
- Papp A→B at 10 μM ([4]; apical to basolateral): 24 ×10⁻⁶ cm/s
- Papp B→A at 10 μM ([4]; basolateral to apical): 27 ×10⁻⁶ cm/s
- acute administration that can be lethal [5]: 20-50 mg/kg body weight

SMILES: O=C(Nc1ccccc1)c1ccccc1O [Salicylanilide, 2-Hydroxy-N-phenylbenzamide]
- ratio of liver to extra-hepatic exposure (in words) [3]: desirable ratios of liver to extra-hepatic exposure
- maximal uncoupling effect compared to DNP (HepG2 cells): lesser maximal uncoupling effect
- uncoupling potency compared to DNP (HepG2 cells): more potent compared to DNP
- Caco-2 efflux ratio compared to DNP (in words) (Caco-2 cell monolayers): reduced efflux ratio
- Caco-2 permeability compared to DNP (in words) (Caco-2 cell monolayers): increased permeability
- efflux ratio [4]: 0.8
- Papp A→B ([4]; apical to basolateral): 39.5 ×10⁻⁶ cm/s
- Papp B→A ([4]; basolateral to apical): 33 ×10⁻⁶ cm/s
